± gives the standard deviation.
Tests used:
[1] = chemical recovery into PDMS from spiked human plasma; higher = better extraction; conditions: pooled human plasma, extraction method: PES with PDMS
[2] = chemical recovery by SPE of plasma after PDMS sampling; higher = better extraction; conditions: pooled human plasma, extraction method: HLB SPE of plasma after PES
[3] = chemical recovery from spiked human plasma; higher = better extraction; conditions: pooled human plasma
[4] = extraction method: PES+SPE (3 d PDMS equilibration then HLB SPE)
[5] = extraction method: SPE only (HLB 96-well)
[6] = extraction method: SPE only (HLB 96-well), PES comparison experiment
[7] = extraction method: solvent precipitation (ACN + hexane)
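For chemical recovery by SPE of plasma after PDMS sampling in this document: over 400 spiked chemicals quantified by LC-HRMS or GC-HRMS via internal standard calibration, recovery relative to spike mix added to unspiked plasma extract to correct matrix effects.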

Row | SMILES | chemical recovery into PDMS ([1]; equilibration time (d): 1) | chemical recovery into PDMS ([1]; equilibration time (d): 3) | chemical recovery into PDMS ([1]; equilibration time (d): 6) | chemical recovery by SPE of plasma ([2]; equilibration time (d): 1) | chemical recovery by SPE of plasma ([2]; equilibration time (d): 3) | chemical recovery by SPE of plasma ([2]; equilibration time (d): 6) | chemical recovery [3, 4] | chemical recovery [3, 5] | chemical recovery [3, 6] | chemical recovery [3, 7]
1 | NC(=O)/N=C1\SCCN1Cc1ccc(Cl)nc1 [Thiacloprid amide] | 2.46 ± 0.75% | 4 ± 1.4% | 4.83 ± 0.88% | 51.1 ± 5.3% | 53.4 ± 4.1% | 47 ± 2.8% | 42.5 ± 3.4% | 33.6 ± 3.3% | 51.2 ± 7% | 78 ± 3.3%
2 | CCc1cccc(C)c1N(C(=O)C(=O)O)C(C)COC (stereo not drawn) [Metolachlor OA] | 19 ± 0.56% | 21.5 ± 1.7% | 21 ± 0.44% | 32.4 ± 6.7% |  | 30.3 ± 2.7% | 40.1 ± 4.2% | 35.7 ± 1.4% | 54.1 ± 5.2% | 73.7 ± 3.3%
3 | CCNC(=O)[C@@H](C)OC(=O)Nc1ccccc1 [Carbetamide] | 8.92 ± 0.88% | 14.1 ± 3.2% | 16.5 ± 2.4% | 49.6 ± 7.6% | 45.6 ± 4.6% | 37.2 ± 8% | 50.4 ± 4.4% | 47.2 ± 3.9% | 53.1 ± 6.2% | 69.9 ± 2.7%
4 | COC(=O)Nc1nc2ccccc2[nH]1 [Carbendazim] | 16.9 ± 1.1% | 25.7 ± 2.7% | 27.6 ± 2.8% | 31.6 ± 3.2% | 24.5 ± 2.5% | 10.6 ± 9.6% | 55.8 ± 5.5% | 58.8 ± 4.2% | 51.3 ± 6.5% | 76.8 ± 3.4%
5 | CC[C@H](C)[C@H]1O[C@]2(C=C[C@@H]1C)C[C@@H]1C[C@@H](C/C=C(\C)[C@@H](O[C@H]3C[C@H](OC)[C@@H](O[C@H]4C[C@H](OC)[C@@H](NC)[C@H](C)O4)[C@H](C)O3)[C@@H](C)/C=C/C=C3\CO[C@@H]4[C@H](O)C(C)=C[C@@H](C(=O)O1)[C@]34O)O2 [Emamectin B1a] | 0.154 ± 0.044% | 0.139 ± 0.047% | 0.0633 ± 0.056% | 9.54 ± 2.3% | 9.04 ± 3% | 8.2 ± 4.6% |  |  | 29.7 ± 9.1% | 69 ± 6.4%
6 | c1ccc(-c2cccc(-c3ccccc3)c2)cc1 [m-Terphenyl] | 90.2 ± 24% | 86.8 ± 18% | 101 ± 37% | 1.91 ± 3.3% | 2.9 ± 2.5% | 2.74 ± 2.4% |  | 0.761 ± 0.18% | 2.42 ± 4.8% | 34.3 ± 1.4%
7 | Cc1cc(C2CC2)nc(Nc2ccccc2)n1 [Cyprodinil] | 33.5 ± 1.8% | 36.1 ± 3.9% | 36.2 ± 1.2% | 0.89 ± 0.78% | 0.733 ± 0.65% | 0.362 ± 0.33% |  |  | 38.5 ± 5.9% | 69.9 ± 3.2%
8 | Oc1ccc(Cl)cc1Cc1ccccc1 [Chlorophene] | 13.4 ± 0.41% | 15.4 ± 0.93% | 15 ± 0.42% | 36.9 ± 6.1% | 29.2 ± 5.9% | 28.6 ± 5.6% | 41.5 ± 3.1% | 36.9 ± 4.1% | 48.5 ± 7.9% | 76.9 ± 7.2%
9 | O=C(O)CCC(=O)c1ccc(F)cc1 [4-Fluorobenzoylpropionic acid] |  | 0.0416 ± 0.072% | 0.0611 ± 0.11% | 60.4 ± 6.4% | 60.3 ± 4.6% | 56.6 ± 5.1% | 47.1 ± 4.1% | 42.5 ± 2% | 59.7 ± 7.3% | 64 ± 7.2%

Reference: the supplement of paper PMC10702517
